Assay results from ChEMBL document CHEMBL1201862, “PubChem BioAssay data set” (2004).
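Step 1: Grow cells in 96-well plates. Step 2: Expose to compound for 48 hours at 5 concentrations. Step 3: Interpolate endpoints linearly; if unreached, use highest concentration. GI50 marks 50% less growth.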 Calls of active or inactive are those of the source. Cut-off read from the data, not from the text of the source: active = GI50 up to about 1.1 µM and inactive = higher.

Assays:
Assay in all cases: inhibition of tumour cell growth, NCI panel, 48 h
DLD-1 = test system: DLD-1
DMS-114 = test system: DMS-114
DMS-273 = test system: DMS-273
HOP-18 = test system: HOP-18
KM-20L2 = test system: KM-20L2
M19-MEL = test system: M19-MEL
XF498 = test system: XF498
LXFL 529 = test system: LXFL 529
RXF 631 = test system: RXF 631

Measured: GI50

COC(=O)c1ccc(/N=N/N(C)COc2ccc(Br)cc2)cc1
inactive: DLD-1 > 54.6 µM | DMS-114 55.7 µM | DMS-273 > 89.9 µM | HOP-18 > 100 µM | KM-20L2 > 81.1 µM | M19-MEL > 100 µM | XF498 > 100 µM

Sc1nc(S)nc(Oc2ccc(Cl)c(Cl)c2)n1
inactive: DLD-1 27.1 µM | DMS-114 19.1 µM | DMS-273 19 µM | HOP-18 36.4 µM | KM-20L2 33.6 µM | LXFL 529 34.9 µM | M19-MEL 22.8 µM | RXF 631 16.3 µM | XF498 25.4 µM

CC(C)Cc1cccc(C(C)C)c1NC(=O)CCC(=O)N/N=C1\C(=N/NC(=O)CCC(=O)Nc2c(C(C)C)cccc2C(C)C)C(c2ccc3c(c2)OCO3)Oc2ccccc21 (centres undefined)
inactive: DLD-1 40.8 µM | DMS-114 42.6 µM | DMS-273 76.9 µM | KM-20L2 > 100 µM | LXFL 529 43.6 µM | M19-MEL > 100 µM | XF498 > 100 µM

O=C(Cc1ccccc1)NN1C(=O)C(Cl)C1c1ccc(Cl)cc1 (centres undefined)
inactive: DLD-1 > 100 µM | DMS-114 > 100 µM | DMS-273 > 100 µM | HOP-18 > 100 µM | KM-20L2 > 100 µM | LXFL 529 > 100 µM | XF498 > 100 µM

C[C@]12CCC(=O)CC1CCCC2=O (some centres undefined)
inactive: DLD-1 > 100 µM | DMS-114 > 100 µM | DMS-273 > 100 µM | LXFL 529 > 100 µM | M19-MEL > 100 µM | RXF 631 > 100 µM | XF498 > 100 µM

CC(C)OC(=O)c1cc(NC(=O)C(C)(C)C)c(F)cc1Cl
inactive: DMS-114 > 100 µM | DMS-273 > 100 µM | HOP-18 > 100 µM | KM-20L2 > 100 µM | LXFL 529 > 100 µM | M19-MEL > 100 µM | RXF 631 > 100 µM | XF498 > 100 µM

O=c1cccccc1NCCCCCCNc1cccccc1=O
inactive: DLD-1 > 100 µM | DMS-114 > 100 µM | DMS-273 > 100 µM | HOP-18 > 100 µM | KM-20L2 > 100 µM | LXFL 529 > 100 µM | M19-MEL > 100 µM | RXF 631 > 100 µM

S=C(N/N=C/c1ccccc1)NC12CC3CC(CC(C3)C1)C2
inactive: DMS-273 22.6 µM | KM-20L2 7.08 µM | LXFL 529 64.7 µM | RXF 631 44.5 µM | XF498 35.8 µM

O=c1cc[nH]c2c1ccc1ncccc12
inactive: DLD-1 > 100 µM | DMS-114 > 100 µM | DMS-273 > 100 µM | HOP-18 > 100 µM | KM-20L2 > 100 µM | LXFL 529 > 100 µM | M19-MEL > 100 µM | RXF 631 > 100 µM

CCCCCC(=O)c1ccc2[nH]c3c(C)cc([N+](=O)[O-])c(C)c3c2c1
inactive: DMS-114 > 100 µM | DMS-273 27.9 µM | M19-MEL > 100 µM | XF498 > 100 µM

COC1(Cc2ccccc2)C(=O)c2ccccc2N1C(C)=O (centres undefined)
inactive: DLD-1 > 100 µM | DMS-114 > 100 µM | DMS-273 > 100 µM | HOP-18 > 100 µM | KM-20L2 > 100 µM | LXFL 529 > 100 µM | M19-MEL > 100 µM | RXF 631 > 100 µM | XF498 > 100 µM

O=C(O)C(Cl)(Cl)Cl
inactive: DLD-1 > 100 µM | DMS-114 > 100 µM | DMS-273 > 100 µM | HOP-18 80 µM | KM-20L2 > 100 µM | LXFL 529 > 100 µM | M19-MEL > 100 µM | XF498 > 100 µM

COC(=O)C1=C(OC)c2cc3c(cc2C(c2cc(OC)c(OC)c(OC)c2)C1C(=O)OC)OCO3 (centres undefined)
inactive: DLD-1 > 100 µM | DMS-114 > 100 µM | DMS-273 > 100 µM | HOP-18 > 100 µM | KM-20L2 > 100 µM | LXFL 529 > 100 µM | M19-MEL > 100 µM | XF498 > 100 µM

CC#N.O[C@@H]1CCCC[C@@H]1O.O[C@@H]1CCCC[C@@H]1O.[TeH2]
inactive: DLD-1 22.7 µM | DMS-114 24.4 µM | DMS-273 19.6 µM | HOP-18 27.5 µM | KM-20L2 65.5 µM | LXFL 529 63.7 µM | M19-MEL 25.1 µM | RXF 631 18.7 µM | XF498 > 100 µM
